Measurements from patent US12171870B2, “Contact lens packaging solutions” (ALCON INC., priority 2020, dated 2024).

Experiments:
[1] = Dissolution of DMPC in HCl aqueous solution and nanoparticle formation by stirring; assay type: physicochemical
Description: The present invention is partly based on the discovery that phosphatidylcholine nanoparticles can be formed in an aqueous solution free of an organic solvent by high energy treating the mixture of water insoluble phosphatidylcholine and an aqueous solution having a pH from 1 to 4. The present invention is also partly based on the discovery that at pH lower than pKa, the negative charge of phosphate group in phosphatidylcholine is neutralized through the protonation, which break static stacking in phosphatidylcholine crystal and improve solubility of phosphatidylcholine in an aqueous solution (scheme 1). For example, according to the experimental results of the present application, DMPC is dissolved (pKa 1.86) into 137 mM of HCl aqueous solution up to 10 mg/mL and induced aggregate and formed nanoparticles (˜30 nm) by stirring at room temperature for about 10 hours. After neutralized by NaOH, the nanoparticles were diluted to certain concentration in packing saline.
Method: DMPC was added into 135 mM of HCl and stirred overnight at room temperature to form nanoparticles (4-440 mg/mL). Then, pH was adjusted to 6-8 by 50% NaOH. The solution was diluted by PBS or Saline 14 to get certain concentration (0.1-2 mg/mL).

[2] = DMPC phosphate group; cited from earlier work

- solubility ([1]; 137 mM HCl aqueous solution, read-out: DMPC dissolved into HCl aqueous solution (solubility)): ≤ 10000 µg/mL
- Nanoparticle size ([1]; formed by stirring at room temperature for about 10 hours in 137 mM HCl): ~30 nm
SMILES: CCCCCCCCCCCCCC(=O)OC[C@H](COP(=O)([O-])OCC[N+](C)(C)C)OC(=O)CCCCCCCCCCCCC [DMPC, Dimyristoylphosphatidylcholine]
- pKa [2]: 1.86
